Measurements: patent publication US11564969B2, “Immunorhelin compounds for intracellular infections” (ISR IMMUNE SYSTEM REGULATION HOLDING AB (PUBL), priority 2017, dated 2023)
Square brackets hold non-standard residues; d marks the D form. Peptide text beside a SMILES is read from it. dHis(τ-Bn) = N[C@H](Cc1cn(Cc2ccccc2)cn1)C(=O)O; pGlu = O=C1CC[C@@H](C(=O)O)N1

How the values were obtained:
[1] = Solubility analysis in PBS (Analysis Method B); assay type: physicochemical; conditions: pH 7.4
Protocol: The solubility of compounds of the invention was tested as described in the general methods. Solubility was then graded according to a rating between 1 to 5, where 1 is most soluble and 5 is least soluble.

[2] = biological target: T1, GnRHR (Homo sapiens, UniProt P30968); conditions: 1000.0
T1 sequence (P30968 1-328): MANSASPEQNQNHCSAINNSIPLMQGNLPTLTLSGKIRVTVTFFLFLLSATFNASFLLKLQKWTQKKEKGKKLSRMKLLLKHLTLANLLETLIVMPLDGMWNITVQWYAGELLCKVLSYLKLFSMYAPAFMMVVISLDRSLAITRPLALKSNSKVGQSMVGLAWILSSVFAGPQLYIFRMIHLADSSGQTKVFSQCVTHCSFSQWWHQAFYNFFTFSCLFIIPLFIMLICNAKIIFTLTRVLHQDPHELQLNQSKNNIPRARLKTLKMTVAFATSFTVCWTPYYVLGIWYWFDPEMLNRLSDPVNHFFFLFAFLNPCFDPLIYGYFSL

[3] = tested on: CD4+ and CD8+ T cells; experiment: MHC class I expression on T cells after stimulation of PBMCs, flow cytometry; assay type: cell-based, human; conditions: PBMCs from healthy donor, with IL-2, 72 hours
Protocol: FIG. 1: Expression of MHC class I after stimulation of T cells with increasing concentrations of GnRH II. PBMCs from a healthy donor was stimulated with GnRH II and IL-2 for 72 hours. Data points represent mean fluorescent intensity of MCH class I expression on CD4^+ T cells (blue triangles) or CD8^+ T cells (black squares) measured with flow cytometry. Human peripheral blood mononuclear cells (PBMCs) were purified from healthy donors with Ficoll-Hypaque density centrifugation. Cells were cultured in RPMI-1640 medium (Invitrogen) supplemented with 10% fetal bovine serum, 100 μg/mL ampicilin and 100 μg/mL streptomycin for 24-72 hours in 37° C., 5% CO2. Cells were stimulated with a compound according to the invention and analysed for expression of cell specific surface markers and […] (monoclonal antibodies from BD Pharmingen) with flow cytomtery.

Solubility grading [1]	GNRHR Stimulation at 1 μM [2]	SMILES	MHC class I expression on T cells [3]
2	102 percentage	CCNC(=O)[C@@H]1CCCN1C(=O)[C@H](CCCNC(=N)N)NC(=O)[C@H](Cc1c[nH]c2ccccc12)NC(=O)[C@@H](Cc1cn(Cc2ccccc2)cn1)NC(=O)[C@H](Cc1c[nH]cn1)NC(=O)[C@H](CO)NC(=O)[C@H](Cc1c[nH]c2ccccc12)NC(=O)[C@H](Cc1c[nH]cn1)NC(=O)[C@@H]1CCC(=O)N1 [Compound 60, pGlu-His-Trp-Ser-His-D-Bhi-Trp-Arg-Pro-NHEt] ([pGlu]HWSH[dHis(τ-Bn)]WRP-NHEt)	
3	112 percentage	CCNC(=O)[C@@H]1CCCN1C(=O)[C@H](Cc1ccc(O)cc1)NC(=O)[C@H](CC(C)C)NC(=O)[C@@H](Cc1cn(Cc2ccccc2)cn1)NC(=O)[C@H](Cc1c[nH]cn1)NC(=O)[C@H](CO)NC(=O)[C@H](Cc1c[nH]c2ccccc12)NC(=O)[C@H](Cc1c[nH]cn1)NC(=O)[C@@H]1CCC(=O)N1 [Compound 61, pGlu-His-Trp-Ser-His-D-Bhi-Leu-Tyr-Pro-NHEt] ([pGlu]HWSH[dHis(τ-Bn)]LYP-NHEt)	
5	77 percentage	CCNC(=O)[C@@H]1CCCN1C(=O)[C@H](Cc1ccc(O)cc1)NC(=O)[C@H](Cc1c[nH]c2ccccc12)NC(=O)[C@@H](Cc1cn(Cc2ccccc2)cn1)NC(=O)[C@H](Cc1ccc(O)cc1)NC(=O)[C@H](CO)NC(=O)[C@H](Cc1c[nH]c2ccccc12)NC(=O)[C@H](Cc1c[nH]cn1)NC(=O)[C@@H]1CCC(=O)N1 [Compound 62, pGlu-His-Trp-Ser-Tyr-D-Bhi-Trp-Tyr-Pro-NHEt] ([pGlu]HWSY[dHis(τ-Bn)]WYP-NHEt)	
5	77 percentage	CCNC(=O)[C@@H]1CCCN1C(=O)[C@H](Cc1ccc(O)cc1)NC(=O)[C@H](Cc1c[nH]c2ccccc12)NC(=O)[C@@H](Cc1cn(Cc2ccccc2)cn1)NC(=O)[C@H](Cc1c[nH]cn1)NC(=O)[C@H](CO)NC(=O)[C@H](Cc1c[nH]c2ccccc12)NC(=O)[C@H](Cc1c[nH]cn1)NC(=O)[C@@H]1CCC(=O)N1 [Compound 63, pGlu-His-Trp-Ser-His-D-Bhi-Trp-Tyr-Pro-NHEt] ([pGlu]HWSH[dHis(τ-Bn)]WYP-NHEt)	
5	50 percentage	NC(=O)CNC(=O)[C@@H]1CCCN1C(=O)[C@H](Cc1ccc(O)cc1)NC(=O)[C@H](Cc1c[nH]c2ccccc12)NC(=O)[C@@H](Cc1c[nH]c2ccccc12)NC(=O)[C@H](Cc1ccc(O)cc1)NC(=O)[C@H](CO)NC(=O)[C@H](Cc1c[nH]c2ccccc12)NC(=O)[C@H](Cc1c[nH]cn1)NC(=O)[C@@H]1CCC(=O)N1 [Compound 64, pGlu-His-Trp-Ser-Tyr-D-Trp-Trp-Tyr-Pro-Gly-amide] ([pGlu]HWSY[dW]WYPG-NH2)	
4	72 percentage	NC(=O)CNC(=O)[C@@H]1CCCN1C(=O)[C@H](Cc1ccc(O)cc1)NC(=O)[C@H](Cc1c[nH]c2ccccc12)NC(=O)[C@@H](Cc1c[nH]c2ccccc12)NC(=O)[C@H](Cc1c[nH]cn1)NC(=O)[C@H](CO)NC(=O)[C@H](Cc1c[nH]c2ccccc12)NC(=O)[C@H](Cc1c[nH]cn1)NC(=O)[C@@H]1CCC(=O)N1 [Compound 65, pGlu-His-Trp-Ser-His-D-Trp-Trp-Tyr-Pro-Gly-amide] ([pGlu]HWSH[dW]WYPG-NH2)	
5	83 percentage	N=C(N)NCCC[C@H](NC(=O)[C@H](Cc1c[nH]c2ccccc12)NC(=O)[C@@H](Cc1c[nH]c2ccccc12)NC(=O)[C@H](Cc1ccc(O)cc1)NC(=O)[C@H](CO)NC(=O)[C@H](Cc1c[nH]c2ccccc12)NC(=O)[C@H](Cc1c[nH]cn1)NC(=O)[C@@H]1CCC(=O)N1)C(=O)N1CCC[C@H]1C(=O)NCC(N)=O [Compound 66, pGlu-His-Trp-Ser-Tyr-D-Trp-Trp-Arg-Pro-Gly-amide] ([pGlu]HWSY[dW]WRPG-NH2)	
1	117 percentage	CCNC(=O)[C@@H]1CCCN1C(=O)[C@H](CCCNC(=N)N)NC(=O)[C@H](Cc1c[nH]c2ccccc12)NC(=O)[C@@H](Cc1cn(Cc2ccccc2)cn1)NC(=O)[C@H](Cc1ccc(O)cc1)NC(=O)[C@H](CO)NC(=O)[C@H](Cc1c[nH]c2ccccc12)NC(=O)[C@H](Cc1c[nH]cn1)NC(=O)[C@@H]1CCC(=O)N1 [Compound 67, pGlu-His-Trp-Ser-Tyr-D-Bhi-Trp-Arg-Pro-NHEt] ([pGlu]HWSY[dHis(τ-Bn)]WRP-NHEt)	
1	86 percentage	CC(C)C[C@H](NC(=O)[C@@H](Cc1c[nH]c2ccccc12)NC(=O)[C@H](Cc1c[nH]cn1)NC(=O)[C@H](CO)NC(=O)[C@H](Cc1c[nH]c2ccccc12)NC(=O)[C@H](Cc1c[nH]cn1)NC(=O)[C@@H]1CCC(=O)N1)C(=O)N[C@@H](CCCNC(=N)N)C(=O)N1CCC[C@H]1C(=O)NCC(N)=O [Compound 68, pGlu-His-Trp-Ser-His-D-Trp-Leu-Arg-Pro-Gly-amide] ([pGlu]HWSH[dW]LRPG-NH2)	
		NC(=O)CNC(=O)[C@@H]1CCCN1C(=O)[C@H](Cc1ccc(O)cc1)NC(=O)[C@H](Cc1c[nH]c2ccccc12)NC(=O)CNC(=O)[C@H](Cc1c[nH]cn1)NC(=O)[C@H](CO)NC(=O)[C@H](Cc1c[nH]c2ccccc12)NC(=O)[C@H](Cc1c[nH]cn1)NC(=O)[C@@H]1CCC(=O)N1 [GnRH II] ([pGlu]HWSHGWYPG-NH2)	directly activates these cells
